Legend:
[1] = compound: C[C@@H](c1ccc2nccn2c1)n1nnc2ncc(-c3cnn(C)c3)nc21 [Savolitinib]; conditions: max 1 µM
How it was run: (§1)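 In 1536-well plates, cancer cell lines in 7.5 μl DMEM/F12 or RPMI with 10% FBS spent 24 hours at 37°C and 5% CO2 and were then dosed for 72 hours with final DMSO typically 0.2%. Viability was read by CellTiter-Glo 2.0 luminescence and scaled between blank-well and DMSO-well means. The single-agent IC50 was fitted from dose responses using a logistic curve in a non-linear mixed effects model, and that logistic curve had two parameters.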

[2] = compound: COc1cccc2c1C(=O)c1c(O)c3c(c(O)c1C2=O)C[C@@](O)(C(=O)CO)C[C@@H]3O[C@H]1C[C@H](N)[C@H](O)[C@H](C)O1 [Doxorubicin]; conditions: max 1 µM
How it was run: as §1

[3] = compound: Cc1cc2ncnn2cc1Nc1ncc2c(n1)n(C1CCOCC1)c(=O)n2C [AZD7648]; conditions: max 10 µM
How it was run: as §1

[4] = compound: C[C@@H](Nc1cc(F)cc(F)c1)c1cc(C(=O)N(C)C)cc2c(=O)cc(N3CCOCC3)oc12 [AZD8186]; conditions: max 3 µM
How it was run: as §1

[5] = compound: O=C(c1cc(Cc2n[nH]c(=O)c3ccccc23)ccc1F)N1CCN(C(=O)C2CC2)CC1 [Olaparib]
How it was run: as §1

[6] = compound: CC1=C(C(=CC=C1)Cl)NC(=O)C2=CN=C(S2)NC3=CC(=NC(=N3)C)N4CCN(CC4)CCO [Dasatinib]; conditions: max 2 µM
How it was run: as §1

[7] = compound: C[C@@H]1COCCN1C2=NC(=NC(=C2)C3(CC3)[S@](=N)(=O)C)C4=C5C=CNC5=NC=C4 [AZD6738]; conditions: max 10 µM
How it was run: as §1

[8] = compound: CC1=CN2[C@@H](C1)C=NC3=CC(=C(C=C3C2=O)OC)OCCCCCOC4=C(C=C5C(=C4)N=C[C@@H]6CC(=CN6C5=O)C)OC [SG3199]; conditions: max 0.001 µM
How it was run: as §1

[9] = compound: COc1nnc2ccc(N3CCC(c4ccc(OCCN5CCN(C)C(=O)[C@H]5C)cc4)CC3)nn12 [AZD5153]; conditions: max 1 µM
How it was run: as §1

[10] = compound: CC(C)n1c(=O)n(C)c2cnc3cc(F)c(-c4ccc(OCCCN5CCCCC5)nc4)cc3c21 [AZD1390]; conditions: max 0.3 µM
How it was run: as §1

[11] = compound: CCc1c2c(nc3ccc(O)cc13)-c1cc3c(c(=O)n1C2)COC(=O)[C@]3(O)CC [SN-38]; conditions: max 0.3 µM
How it was run: as §1

[12] = compound: COc1cccc(OCCCN)c1-c1cc(Nc2cnc(C#N)cn2)n[nH]1 [Prexasertib]; conditions: max 1 µM
How it was run: as §1

[13] = compound: CC(=O)Nc1cccc(-n2c(=O)n(C3CC3)c(=O)c3c(Nc4ccc(I)cc4F)n(C)c(=O)c(C)c32)c1 [Trametinib]; conditions: max 1 µM
How it was run: as §1

[14] = compound: C1CN(CCC1(C(=O)N[C@@H](CCO)C2=CC=C(C=C2)Cl)N)C3=NC=NC4=C3C=CN4 [Capivasertib]
How it was run: as §1

[15] = compound: CC1(C)CCC(CN2CCN(c3ccc(C(=O)NS(=O)(=O)c4ccc(NCC5CCOCC5)c([N+](=O)[O-])c4)c(Oc4cnc5[nH]ccc5c4)c3)CC2)=C(c2ccc(Cl)cc2)C1 [Venetoclax]; conditions: max 1 µM
How it was run: as §1

[16] = compound: CCN(CCO)CCCOc1ccc2c(Nc3cc(CC(=O)Nc4cccc(F)c4)[nH]n3)ncnc2c1 [AZD2811]; conditions: max 1 µM
How it was run: as §1

[17] = compound: CC(=O)c1c(C)c2cnc(Nc3ccc(N4CCNCC4)cn3)nc2n(C2CCCC2)c1=O [Palbociclib]; conditions: max 10 µM
How it was run: as §1

[18] = compound: Cc1nc(-c2cn3c(n2)-c2ccc(-c4cnn(C(C)(C)C(N)=O)c4)cc2OCC3)n(C(C)C)n1 [Taselisib]; conditions: max 10 µM
How it was run: as §1

[19] = compound: COc1cc2ncnc(Nc3ccc(F)c(Cl)c3)c2cc1OCCCN1CCOCC1 [Gefitinib]; conditions: max 10 µM
How it was run: as §1

[20] = compound: C=CCn1c(=O)c2cnc(Nc3ccc(N4CCN(C)CC4)cc3)nc2n1-c1cccc(C(C)(C)O)n1 [AZD1775]
How it was run: as §1

[21] = compound: CS(=O)(=O)CCNCc1ccc(-c2ccc3ncnc(Nc4ccc(OCc5cccc(F)c5)c(Cl)c4)c3c2)o1 [Lapatinib]; conditions: max 10 µM
How it was run: as §1

[22] = compound: COc1cc(Nc2ncc3c(n2)-c2ccc(Cl)cc2C(c2c(F)cccc2OC)=NC3)ccc1C(=O)O [Alisertib]; conditions: max 10 µM
How it was run: as §1

[23] = compound: CN(CC[C@H](CSC1=CC=CC=C1)NC2=C(C=C(C=C2)S(=O)(=O)NC(=O)C3=CC=C(C=C3)N4CCC(CC4)[C@H](C5=CC=CC=C5C6=CC=C(C=C6)Cl)O)S(=O)(=O)C(F)(F)F)CCO [AZD4320]; conditions: max 1 µM
How it was run: as §1

[24] = compound: CN(C)CCCOc1ccc(-c2ccc3ncc4c(c3c2)n(C2CCOCC2)c(=O)n4C)cn1 [AZD0156]
How it was run: as §1

[25] = compound: C[C@@H](Oc1cc(-c2cnn(C3CCNCC3)c2)cnc1N)c1c(Cl)ccc(F)c1Cl [Crizotinib]; conditions: max 10 µM
How it was run: as §1

[26] = compound: Cc1c2c(nn1C)CSCc1cc(n(C)n1)CSc1cc(c3ccccc3c1)OCCCc1c(C(=O)O)n(C)c3c-2c(Cl)ccc13 [AZD5991]; conditions: max 1 µM
How it was run: as §1

[27] = compound: Cn1cnc2c(F)c(Nc3ccc(Br)cc3Cl)c(C(=O)NOCCO)cc21 [Selumetinib]; conditions: max 10 µM
How it was run: as §1

Row | Cell Line | IC50, cell viability 72 h [1] [nM] | IC50, cell viability 72 h [2] [nM] | IC50, cell viability 72 h [3] [nM] | IC50, cell viability 72 h [4] [nM] | IC50, cell viability 72 h ([5]; max 10 µM) [nM] | IC50, cell viability 72 h [6] [nM] | IC50, cell viability 72 h [7] [nM] | IC50, cell viability 72 h [8] [nM] | IC50, cell viability 72 h [9] [nM] | IC50, cell viability 72 h [10] [nM] | IC50, cell viability 72 h [11] [nM] | IC50, cell viability 72 h [12] [nM] | IC50, cell viability 72 h [13] [nM] | IC50, cell viability 72 h ([14]; max 10 µM) [nM] | IC50, cell viability 72 h [15] [nM] | IC50, cell viability 72 h [16] [nM] | IC50, cell viability 72 h [17] [nM] | IC50, cell viability 72 h [18] [nM] | IC50, cell viability 72 h [19] [nM] | IC50, cell viability 72 h ([20]; max 3 µM) [nM] | IC50, cell viability 72 h [21] [nM] | IC50, cell viability 72 h [22] [nM] | IC50, cell viability 72 h [23] [nM] | IC50, cell viability 72 h ([24]; max 3 µM) [nM] | IC50, cell viability 72 h [25] [nM] | IC50, cell viability 72 h [26] [nM] | IC50, cell viability 72 h [27] [nM] | IC50, cell viability 72 h ([5]; max 3 µM) [nM] | IC50, cell viability 72 h ([14]; max 3 µM) [nM] | IC50, cell viability 72 h ([20]; max 1 µM) [nM] | IC50, cell viability 72 h ([24]; max 1 µM) [nM]
1 | LCLC-97TM1 (Non-Small Cell Lung Carcinoma) | > 1000 | > 1000 | > 10000 | > 3000 | > 10000 | > 2000 | 2280 | > 1 | 153 | > 300 | 75.6 | 28.3 | 26.4 | > 10000 | > 1000 | > 1000 | > 10000 | 3360 | > 10000 | 1380 | > 10000 | 3440 | > 1000 | > 3000 | 4840 | > 1000 | 3190 |  |  |  | 
2 | BE2-M17 (Neuroblastoma) | > 1000 | 425 | > 10000 | > 3000 | > 10000 | > 2000 | 4840 | > 1 | > 1000 | > 300 | 14.5 | 24.9 | 127 | > 10000 | > 1000 | > 1000 | > 10000 | 2620 | > 10000 | 900 | > 10000 | 1910 | > 1000 | > 3000 | 8330 | 324 | 9300 |  |  |  | 
3 | CHP-134 (Neuroblastoma) |  |  |  |  |  |  |  |  |  |  |  |  |  |  |  |  |  |  |  | 646 |  |  |  | > 3000 |  |  |  | > 3000 | > 3000 |  | 
4 | FTC-133 (Thyroid Gland Carcinoma) | > 1000 | 352 | > 10000 | > 3000 | > 10000 | > 2000 | 4690 | > 1 | 657 | > 300 | 6.51 | 29.2 | > 1000 | 8760 | > 1000 | > 1000 | > 10000 | > 10000 | > 10000 |  | > 10000 | 8360 | > 1000 |  | > 10000 | 999 | > 10000 |  |  | 968 | > 1000
5 | OE21 (Esophageal Squamous Cell Carcinoma) | > 1000 | > 1000 | > 10000 | > 3000 | > 10000 | 1280 |  | > 1 | 256 | > 300 | 214 | 43.3 | > 1000 | 5200 | > 1000 | > 1000 | > 10000 | 1030 | 3380 | 718 | 6830 | > 10000 | > 1000 | > 3000 | > 10000 | > 1000 | > 10000 |  |  |  | 
6 | Detroit562 (Head and Neck Carcinoma) | > 1000 | > 1000 | > 10000 | > 3000 | > 10000 | 115 | 2150 | > 1 | 65.2 | > 300 | 22 | 29.5 | > 1000 | 6950 | > 1000 | 188 | > 10000 | 355 | > 10000 | 430 | 2020 | 760 | > 1000 | > 3000 | 1680 | > 1000 | > 10000 |  |  |  | 
7 | CAL-33 (Oral Cavity Carcinoma) | > 1000 | 219 | > 10000 | > 3000 | > 10000 | 550 | 4390 | > 1 | > 1000 | > 300 | 5.71 | 138 | 724 | > 10000 | > 1000 | 255 | > 10000 | 122 | > 10000 | 659 | 3530 | 553 | > 1000 | > 3000 | > 10000 | > 1000 | > 10000 |  |  |  | 
8 | BPH-1 (Non-Cancerous) | > 1000 | 312 | > 10000 | > 3000 | > 10000 | 127 | > 10000 | > 1 | 69.4 | > 300 | 6.84 | > 1000 | 80.2 | > 10000 | > 1000 | > 1000 | > 10000 | 379 | 5900 | 882 | 836 | 1350 | > 1000 | > 3000 | > 10000 | > 1000 | 4720 |  |  |  | 
9 | HeLa (Cervical Carcinoma) | > 1000 | > 1000 | > 10000 | > 3000 | > 10000 | > 2000 | > 10000 | > 1 | > 1000 | > 300 | > 300 | 105 | > 1000 | > 10000 | > 1000 | > 1000 | > 10000 | > 10000 | > 10000 | 893 | > 10000 | > 10000 | > 1000 | > 3000 | > 10000 | > 1000 | > 10000 |  |  |  | 
